Source: ChEMBL document CHEMBL1909046, “DrugMatrix in vitro pharmacology data”

Experiments:
[1] = target: T1, Neutrophil elastase (Homo sapiens, UniProt P08246); assay type: tissue-based;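 note: inhibition of neutrophil elastase enzyme activity, measured with a p-nitroanilide-linked peptide substrate; in other assays of this panel Not Active means under 50% inhibition at 10 µM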
T1 sequence (P08246 whole entry): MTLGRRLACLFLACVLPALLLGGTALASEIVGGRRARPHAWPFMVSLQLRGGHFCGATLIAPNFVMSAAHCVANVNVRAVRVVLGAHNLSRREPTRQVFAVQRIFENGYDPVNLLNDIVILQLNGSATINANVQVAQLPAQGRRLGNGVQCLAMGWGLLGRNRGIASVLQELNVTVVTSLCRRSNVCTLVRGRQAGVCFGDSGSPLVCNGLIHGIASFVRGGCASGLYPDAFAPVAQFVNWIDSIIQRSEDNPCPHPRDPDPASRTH

[2] = target: T2, Nitric oxide synthase, inducible (Mus musculus, UniProt P29477); set-up: species or system Escherichia coli;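 note: inhibition of iNOS enzyme activity measured with L-arginine as substrate; in other assays of this panel Not Active means under 50% inhibition at 10 µM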
T2 sequence (P29477 whole entry): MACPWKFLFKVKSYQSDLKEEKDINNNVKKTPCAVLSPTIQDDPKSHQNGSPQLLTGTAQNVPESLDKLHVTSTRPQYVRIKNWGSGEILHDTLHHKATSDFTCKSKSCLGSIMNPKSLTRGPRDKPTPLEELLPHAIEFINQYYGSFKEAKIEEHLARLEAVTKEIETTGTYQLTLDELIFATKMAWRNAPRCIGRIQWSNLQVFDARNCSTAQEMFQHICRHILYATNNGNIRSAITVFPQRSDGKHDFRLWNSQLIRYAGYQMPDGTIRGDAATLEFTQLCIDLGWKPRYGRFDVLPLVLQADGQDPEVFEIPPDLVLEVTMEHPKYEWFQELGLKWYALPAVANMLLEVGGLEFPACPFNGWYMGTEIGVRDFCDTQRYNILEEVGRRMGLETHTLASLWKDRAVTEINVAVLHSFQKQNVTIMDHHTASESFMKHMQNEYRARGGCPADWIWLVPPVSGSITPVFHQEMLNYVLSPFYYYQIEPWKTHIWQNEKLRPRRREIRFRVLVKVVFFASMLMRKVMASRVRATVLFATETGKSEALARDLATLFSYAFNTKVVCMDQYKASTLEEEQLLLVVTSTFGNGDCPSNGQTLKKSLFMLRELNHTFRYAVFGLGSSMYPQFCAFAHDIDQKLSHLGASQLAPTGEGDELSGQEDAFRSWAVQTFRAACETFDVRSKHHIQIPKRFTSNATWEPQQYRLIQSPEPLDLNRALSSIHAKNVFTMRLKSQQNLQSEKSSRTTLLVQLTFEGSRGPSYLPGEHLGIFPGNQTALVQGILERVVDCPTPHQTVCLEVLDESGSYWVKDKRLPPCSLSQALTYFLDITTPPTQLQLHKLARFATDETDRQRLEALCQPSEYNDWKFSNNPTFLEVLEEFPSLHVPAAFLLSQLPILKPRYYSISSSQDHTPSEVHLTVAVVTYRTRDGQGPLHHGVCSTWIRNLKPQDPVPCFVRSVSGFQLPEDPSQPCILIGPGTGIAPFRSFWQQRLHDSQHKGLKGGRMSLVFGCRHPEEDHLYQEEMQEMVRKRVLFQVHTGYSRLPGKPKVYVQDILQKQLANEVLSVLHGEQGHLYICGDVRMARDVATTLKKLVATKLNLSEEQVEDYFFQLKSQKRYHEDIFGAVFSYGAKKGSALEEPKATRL

[3] = target: Cytochrome P450 2C9 (Homo sapiens, UniProt P11712); conditions: bti-tn-5b1-4; note: in other assays of this panel Not Active means under 50% inhibition at 10 µM
Chain of Cytochrome P450 2C9 (P11712 whole entry): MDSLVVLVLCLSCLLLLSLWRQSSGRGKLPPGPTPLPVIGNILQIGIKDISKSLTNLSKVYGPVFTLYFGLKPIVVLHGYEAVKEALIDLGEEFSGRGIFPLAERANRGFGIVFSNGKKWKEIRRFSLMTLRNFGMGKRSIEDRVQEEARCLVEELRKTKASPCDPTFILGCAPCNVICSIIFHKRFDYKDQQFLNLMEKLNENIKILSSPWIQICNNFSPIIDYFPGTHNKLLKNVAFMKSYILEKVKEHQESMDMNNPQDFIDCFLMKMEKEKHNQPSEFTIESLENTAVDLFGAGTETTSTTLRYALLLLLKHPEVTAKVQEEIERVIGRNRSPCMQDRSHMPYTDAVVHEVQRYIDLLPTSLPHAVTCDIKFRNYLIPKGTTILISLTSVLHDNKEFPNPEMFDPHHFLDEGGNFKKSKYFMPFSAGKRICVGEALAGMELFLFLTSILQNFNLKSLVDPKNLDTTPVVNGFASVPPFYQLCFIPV

[4] = target: T3, Type-2 angiotensin II receptor (Homo sapiens, UniProt P50052); assay type: cell-based; conditions: cho-k1; note: in other assays of this panel Not Active means under 50% inhibition at 10 µM
T3 sequence (P50052 whole entry): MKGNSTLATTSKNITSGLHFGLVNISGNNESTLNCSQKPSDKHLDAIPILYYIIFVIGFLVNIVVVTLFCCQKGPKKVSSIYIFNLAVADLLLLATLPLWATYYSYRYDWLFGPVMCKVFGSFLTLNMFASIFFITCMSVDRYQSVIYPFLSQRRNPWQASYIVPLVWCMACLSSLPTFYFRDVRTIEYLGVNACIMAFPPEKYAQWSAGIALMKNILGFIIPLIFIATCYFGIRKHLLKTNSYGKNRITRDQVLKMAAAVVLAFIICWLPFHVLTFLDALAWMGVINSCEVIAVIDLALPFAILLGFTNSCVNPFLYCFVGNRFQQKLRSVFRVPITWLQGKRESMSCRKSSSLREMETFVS

[5] = DRUGMATRIX: Leukotriene, BLT (LTB4) radioligand binding (ligand: [3H]LTB4); assay type: cell membranes, Membrane; conditions: u-937; Not Active = under 50% inhibition at 10 µM
[6] = DRUGMATRIX: Phosphodiesterase PDE4 enzyme inhibition (substrate: [3H]cAMP + cAMP); conditions: u-937; Not Active = under 50% inhibition at 10 µM
[7] = target: Delta-type opioid receptor (Homo sapiens, UniProt P41143); assay type: cell membranes, HEK293, Membrane; conditions: hek293; note: in other assays of this panel Not Active means under 50% inhibition at 10 µM
Chain of Delta-type opioid receptor (P41143 whole entry): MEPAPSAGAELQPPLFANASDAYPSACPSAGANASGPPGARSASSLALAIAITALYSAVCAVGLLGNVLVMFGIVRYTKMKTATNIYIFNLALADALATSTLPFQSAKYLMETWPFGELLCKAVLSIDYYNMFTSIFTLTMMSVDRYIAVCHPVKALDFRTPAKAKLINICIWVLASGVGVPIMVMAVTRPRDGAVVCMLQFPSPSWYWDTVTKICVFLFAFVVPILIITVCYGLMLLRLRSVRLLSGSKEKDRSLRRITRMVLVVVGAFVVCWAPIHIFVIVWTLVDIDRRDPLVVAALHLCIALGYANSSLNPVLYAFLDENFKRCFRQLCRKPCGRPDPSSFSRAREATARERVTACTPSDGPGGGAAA

NC(=O)NC(=O)Cc1ccccc1 [PHENACEMIDE]
Not Active: IC50 [1] | IC50 [2] | IC50 [3] | Ki [3] | IC50 [4] | IC50 [5] | Ki [5] | IC50 [6] | Ki [6] | IC50 [7]

Nc1ccc(C(=O)O)c(O)c1 [AMINOSALICYLIC ACID]
Not Active: IC50 [1] | IC50 [2] | IC50 [3] | Ki [3] | IC50 [4] | IC50 [5] | Ki [5] | IC50 [6] | Ki [6] | IC50 [7]

O=c1[nH]cnc2c1ncn2[C@H]1CC[C@@H](CO)O1 [DIDANOSINE]
Not Active: IC50 [1] | IC50 [2] | IC50 [3] | Ki [3] | IC50 [4] | IC50 [5] | Ki [5] | IC50 [6] | Ki [6] | IC50 [7]

NC(=O)CN1CCCC1=O
Not Active: IC50 [1] | IC50 [2] | IC50 [3] | Ki [3] | IC50 [4] | IC50 [5] | Ki [5] | IC50 [6] | Ki [6] | IC50 [7]

Clc1cc(Cl)c(OCC#CI)cc1Cl [HALOPROGIN]
Not Active: IC50 [1] | IC50 [2] | IC50 [3] | Ki [3] | IC50 [4] | IC50 [5] | Ki [5] | IC50 [6] | Ki [6] | IC50 [7]

O=C(NCCN1CCOCC1)c1ccc(Cl)cc1 [MOCLOBEMIDE]
Not Active: IC50 [1] | IC50 [2] | IC50 [3] | Ki [3] | IC50 [4] | IC50 [5] | Ki [5] | IC50 [6] | Ki [6] | IC50 [7]

Cc1c(N)nc([C@H](CC(N)=O)NC[C@H](N)C(N)=O)nc1C(=O)N[C@H](C(=O)N[C@H](C)[C@@H](O)[C@H](C)C(=O)N[C@H](C(=O)NCCc1nc(-c2nc(C(=O)NCCC[S+](C)C)cs2)cs1)[C@@H](C)O)[C@@H](O[C@@H]1O[C@@H](CO)[C@@H](O)[C@H](O)[C@@H]1O[C@H]1O[C@H](CO)[C@@H](O)[C@H](OC(N)=O)[C@@H]1O)c1c[nH]cn1.[Br-] [BLEOMYCIN A2]
Not Active: IC50 [1] | IC50 [2] | IC50 [3] | Ki [3] | IC50 [4] | IC50 [5] | Ki [5] | IC50 [6] | Ki [6] | IC50 [7]

CC(C)Cc1ccc([C@H](C)C(=O)O)cc1 [DEXIBUPROFEN]
Not Active: IC50 [1] | IC50 [2] | IC50 [3] | Ki [3] | IC50 [4] | IC50 [5] | Ki [5] | IC50 [6] | Ki [6] | IC50 [7]

COc1ccc(C[C@H](N)C(=O)N[C@H]2[C@@H](O)[C@H](n3cnc4c(N(C)C)ncnc43)O[C@@H]2CO)cc1 [PUROMYCIN]
Not Active: IC50 [1] | IC50 [2] | IC50 [3] | Ki [3] | IC50 [4] | IC50 [5] | Ki [5] | IC50 [6] | Ki [6] | IC50 [7]

CCC1(c2ccccc2)C(=O)NC(=O)NC1=O [PHENOBARBITAL]
Not Active: IC50 [1] | IC50 [2] | IC50 [3] | Ki [3] | IC50 [4] | IC50 [5] | Ki [5] | IC50 [6] | Ki [6] | IC50 [7]

O=C1c2ccccc2C(=O)C1c1ccccc1 [PHENINDIONE]
Not Active: IC50 [1] | IC50 [2] | IC50 [3] | Ki [3] | IC50 [4] | IC50 [5] | Ki [5] | IC50 [6] | Ki [6] | IC50 [7]

OC[C@H]1OC2C3[C@@H](CO)OC(O[C@H]4[C@H](O)[C@@H](O)[C@@H](O[C@H]5[C@H](O)[C@@H](O)[C@@H](O[C@H]6[C@H](O)[C@@H](O)[C@@H](O[C@H]7[C@H](O)[C@@H](O)[C@@H](O[C@H]8[C@H](O)[C@@H](O)[C@@H](O[C@H]9[C@H](O)[C@@H](O)C(OC1[C@H](O)[C@H]2O)O[C@@H]9CO)O[C@@H]8CO)O[C@@H]7CO)O[C@@H]6CO)O[C@@H]5CO)O[C@@H]4CO)[C@H](O)[C@H]3O
Not Active: IC50 [1] | IC50 [2] | IC50 [3] | Ki [3] | IC50 [4] | IC50 [5] | Ki [5] | IC50 [6] | Ki [6] | IC50 [7]

CO[C@H]1O[C@@H]2O[C@@]3(C)CC[C@H]4[C@H](C)CC[C@@H]([C@H]1C)[C@@]24OO3
Not Active: IC50 [1] | IC50 [2] | IC50 [3] | Ki [3] | IC50 [4] | IC50 [5] | Ki [5] | IC50 [6] | Ki [6] | IC50 [7]

CC(C)Cn1cnc2c(N)nc3ccccc3c21 [IMIQUIMOD]
Not Active: IC50 [1] | IC50 [2] | IC50 [3] | Ki [3] | IC50 [4] | IC50 [5] | Ki [5] | IC50 [6] | Ki [6] | IC50 [7]

COc1cc(NC(C)CCCN)c2ncccc2c1 (stereo not given) [PRIMAQUINE]
Not Active: IC50 [1] | IC50 [2] | IC50 [3] | Ki [3] | IC50 [4] | IC50 [5] | Ki [5] | IC50 [6] | Ki [6] | IC50 [7]

O=C(O)COC(=O)Cc1ccccc1Nc1c(Cl)cccc1Cl [ACECLOFENAC]
Not Active: IC50 [1] | IC50 [2] | IC50 [3] | Ki [3] | IC50 [4] | IC50 [5] | Ki [5] | IC50 [6] | Ki [6] | IC50 [7]

CC(C)(C#N)c1cc(Cn2cncn2)cc(C(C)(C)C#N)c1 [ANASTROZOLE]
Not Active: IC50 [1] | IC50 [2] | IC50 [3] | Ki [3] | IC50 [4] | IC50 [5] | Ki [5] | IC50 [6] | Ki [6] | IC50 [7]

Cc1cc(C(C)(C)C)c(O)c(C)c1CC1=NCCN1 [OXYMETAZOLINE]
Not Active: IC50 [1] | IC50 [2] | IC50 [3] | Ki [3] | IC50 [4] | IC50 [5] | Ki [5] | IC50 [6] | Ki [6] | IC50 [7]

O=C(Nc1ccc(Cl)c(Cl)c1)c1cc(Cl)cc(Cl)c1O [3,3',4',5-TETRACHLOROSALICYLANILIDE]
Not Active: IC50 [1] | IC50 [2] | IC50 [3] | Ki [3] | IC50 [4] | IC50 [5] | Ki [5] | IC50 [6] | Ki [6] | IC50 [7]
